Where a name gives a salt, the structure may show the parent alone.
How the values were obtained:
[1] = cited from earlier work
[2] = Stability of raw API, stability indicating HPLC method; format: physicochemical; settings: Sodium Fusidate compared with Fusidic acid, Tables 1 and 2
From the text: In both studies the * Initial denotes the results of the samples tested at the time of receipt of the API from the supplier.

| stability as an API [2] | SMILES | Protein binding [1] |
| --- | --- | --- |
| – | Clc1ccccc1C(c1ccccc1)(c1ccccc1)n1ccnc1 [Clotrimazole, 1-(o-Chloro-α,α-diphenylbenzyl)imidazole] | about 90% |
| more stable than Fusidic acid | CC(=O)O[C@H]1C[C@@]2(C)[C@@H](C[C@@H](O)[C@H]3[C@@]4(C)CC[C@@H](O)[C@@H](C)[C@@H]4CC[C@@]32C)/C1=C(\CCC=C(C)C)C(=O)O [Sodium Fusidate, 3μ,11μ,16β-Trihydroxy 29-nor-8μ,9β,13μ,14β-dammara-17(20)[10,21-cis], 24-dien-21-oic acid 16-acetate, sodium salt] | – |
